Several values for one entry are separate records, joined by “and”; a condition that tells them apart may be missing. Equal values may be shown once.
How the values were obtained:
Experiment in all cases: RNAP-Inhibition Assay
Settings in all cases: 37 °C
[1] = target: DNA-directed RNA polymerase subunit beta (Escherichia coli (strain K12), UniProt P0A8V2)
Procedure: (§1) Fluorescence-detected RNAP inhibition assays in Tables 1 and 4 were performed using a DNA fragment containing the lacUV5 promoter as a template and the profluorescent ATP analog γ-[2′-(2-benzothiazoyl)-6′-hydroxybenzothiazole]-ATP(BBT-ATP, Jena Biosciences) as a substrate (methods as in ref 32). Fluorescence-detected RNAP inhibition assays in Figure 2C were performed essentially as described in refs 33 and 34. The assay used a proprietary circular single-stranded DNA as a template (Kool NC-45 Universal RNAP Template, Epicenter). […] A total of 5 μL of 20 nM recombinant RNAP in assay buffer [50 mM HEPES (pH = 8.0), 50 mM KCl, 4 mM MgCl2, 5% glycerol (v/v), 1 mM DTT, 0.1 mg mL−1 BSA, and 0.01% Triton X-100 (v/v)] was then added. After a 30 min incubation at RT, 5 μL of assay buffer solution containing 0.04 ng/μL DNA template and rNTPs (ATP, CTP, GTP, UTP; 600 μM each; Lucigen) was added to start the reaction. After incubation for 2 h at 37 °C, 70 μL of Quant-iT RiboGreen RNA Reagent [1:350 dilution in buffer containing 10 mM Tris-HCl (pH = 7.5) and 1 mM EDTA] was added to stop the reaction and develop the signal. The plate was read using a PheraStar Plus plate reader (BMG).

[2] = target: DNA-directed RNA polymerase subunit beta [D516V] (Escherichia coli, D516V)
Procedure: as §1

[3] = target: DNA-directed RNA polymerase subunit beta [H526D] (Escherichia coli, H526D)
Procedure: as §1

[4] = target: DNA-directed RNA polymerase subunit beta [S531L] (Escherichia coli, S531L)
Procedure: as §1

Chain of DNA-directed RNA polymerase subunit beta (P0A8V2 whole entry, the tested form may be a part): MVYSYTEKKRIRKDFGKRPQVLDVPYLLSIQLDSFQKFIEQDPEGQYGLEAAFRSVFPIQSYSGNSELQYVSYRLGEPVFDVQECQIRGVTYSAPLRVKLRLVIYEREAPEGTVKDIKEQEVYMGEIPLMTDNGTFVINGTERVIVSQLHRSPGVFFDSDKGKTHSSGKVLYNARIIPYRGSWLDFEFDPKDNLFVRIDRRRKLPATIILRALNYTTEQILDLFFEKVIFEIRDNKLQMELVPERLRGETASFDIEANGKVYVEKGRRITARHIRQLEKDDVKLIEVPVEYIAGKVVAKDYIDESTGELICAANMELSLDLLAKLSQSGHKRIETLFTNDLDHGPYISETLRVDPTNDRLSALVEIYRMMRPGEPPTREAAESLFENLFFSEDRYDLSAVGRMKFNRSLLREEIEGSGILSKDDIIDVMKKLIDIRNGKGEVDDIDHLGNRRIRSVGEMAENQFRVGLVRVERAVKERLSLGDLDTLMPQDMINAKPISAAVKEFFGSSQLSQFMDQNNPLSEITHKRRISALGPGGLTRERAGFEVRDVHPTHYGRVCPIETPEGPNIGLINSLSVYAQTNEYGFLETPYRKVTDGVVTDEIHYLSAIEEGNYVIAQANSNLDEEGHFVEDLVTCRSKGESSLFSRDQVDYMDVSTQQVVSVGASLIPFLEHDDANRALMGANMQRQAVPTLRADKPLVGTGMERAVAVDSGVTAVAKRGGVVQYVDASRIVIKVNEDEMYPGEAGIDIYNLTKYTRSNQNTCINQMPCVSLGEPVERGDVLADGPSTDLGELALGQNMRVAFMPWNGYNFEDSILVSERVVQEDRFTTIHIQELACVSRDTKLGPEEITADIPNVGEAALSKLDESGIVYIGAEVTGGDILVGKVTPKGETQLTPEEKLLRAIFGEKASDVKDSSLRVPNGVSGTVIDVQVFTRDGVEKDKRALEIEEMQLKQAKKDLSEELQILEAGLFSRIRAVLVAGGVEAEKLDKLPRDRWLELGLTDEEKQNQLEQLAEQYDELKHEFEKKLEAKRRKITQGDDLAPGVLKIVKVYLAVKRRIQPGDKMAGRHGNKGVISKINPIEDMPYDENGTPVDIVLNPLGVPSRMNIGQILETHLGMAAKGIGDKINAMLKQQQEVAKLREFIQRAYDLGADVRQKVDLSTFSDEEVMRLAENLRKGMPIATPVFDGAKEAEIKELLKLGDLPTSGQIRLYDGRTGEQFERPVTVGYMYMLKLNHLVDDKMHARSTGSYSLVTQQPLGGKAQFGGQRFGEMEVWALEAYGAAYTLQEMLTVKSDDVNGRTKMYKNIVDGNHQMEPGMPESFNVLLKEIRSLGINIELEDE

SMILES	IC50 [1]	IC50 [2] [µM]	IC50 [3] [µM]	IC50 [4] [µM]
CO[C@H]1/C=C/O[C@@]2(C)Oc3c(C)c(O)c4c(O)c(cc(O)c4c3C2=O)NC(=O)/C(C)=C\C=C\[C@H](C)[C@H](O)[C@@H](C)[C@@H](O)[C@@H](C)[C@H](OC(C)=O)[C@@H]1C [CB-01-11]	30 nM and 20 nM	70	> 100	80
CC(C)Cc1nnc2c(C(=O)NC3c4ccccc4-c4ccccc43)cccn12 [MRL-436]	2000 nM and 3000 nM	4	3	4
